Target: T1, AvrB (Pseudomonas savastanoi, UniProt P13835)
T1 construct: recombinant in E. coli BL21 Rosetta from pProEX-HTa; N-terminal His tag removed with TEV protease; residues 16 to 319 modelled in the ADP complex; 36 kDa
Test: X-ray crystallography, crystal soak
Type: binding
Conditions: 5 mM nucleotide soak about 1 d, pH 7.5, with and without 5 mM MgCl2; lower lobe pocket (Y65, R99, R266)

T1 sequence (P13835 whole entry, the tested form may be a part): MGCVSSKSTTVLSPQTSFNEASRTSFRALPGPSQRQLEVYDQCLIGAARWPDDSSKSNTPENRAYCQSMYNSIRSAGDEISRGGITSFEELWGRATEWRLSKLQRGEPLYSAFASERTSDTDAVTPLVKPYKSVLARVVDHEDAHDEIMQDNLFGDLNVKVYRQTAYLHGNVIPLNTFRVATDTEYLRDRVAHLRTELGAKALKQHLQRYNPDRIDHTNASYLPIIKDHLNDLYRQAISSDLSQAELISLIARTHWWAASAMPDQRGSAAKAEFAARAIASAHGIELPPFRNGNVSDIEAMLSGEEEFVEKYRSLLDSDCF

For `Nc1ncnc2c1ncn2[C@@H]1O[C@H](COP(=O)(O)OP(=O)(O)O)[C@@H](O)[C@H]1O` [ADP], the “X-ray crystallography, crystal soak” value was “We found that crystallized AvrB could bind ADP within the lower lobe pocket”.

From paper PMC1839166, “Type III Effector Activation via Nucleotide Binding, Phosphorylation, and Host Target Interaction” (PLoS Pathogens, 2007)
